Results published in ChEMBL document CHEMBL1201862, “PubChem BioAssay data set” (2004).
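Compound exposure: 48 hours, 5 concentrations, 96-well plates. Here, GI50 denotes the concentration required for 50% inhibition of growth.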 The source made the active and inactive calls. No stated cut-off is given here; in the data, active = GI50 up to about 1.1 µM and inactive = higher.

What was measured:
Experiment in all cases: NCI-60 cell line screen, 48 h
RPMI-8226 = tested on: RPMI-8226
NCI/ADR-RES = tested on: NCI/ADR-RES
NCI-H23 = tested on: NCI-H23
SK-OV-3 = tested on: SK-OV-3
SNB-19 = tested on: SNB-19
SW-620 = tested on: SW-620
MDA-MB-435 = tested on: MDA-MB-435
CAKI-1 = tested on: CAKI-1
RXF 393 = tested on: RXF 393
SR = tested on: SR
IGROV-1 = tested on: IGROV-1
HL-60 = tested on: HL-60
SF-268 = tested on: SF-268
OVCAR-5 = tested on: OVCAR-5
OVCAR-8 = tested on: OVCAR-8
UO-31 = tested on: UO-31
OVCAR-3 = tested on: OVCAR-3
HOP-62 = tested on: HOP-62
Malme-3M = tested on: Malme-3M
SNB-75 = tested on: SNB-75

Row | SMILES | GI50 (RPMI-8226) | GI50 (NCI/ADR-RES) | GI50 (NCI-H23) | GI50 (SK-OV-3) | GI50 (SNB-19) | GI50 (SW-620) | GI50 (MDA-MB-435) | GI50 (CAKI-1) | GI50 (RXF 393) | GI50 (SR) | GI50 (IGROV-1) | GI50 (HL-60) | GI50 (SF-268) | GI50 (OVCAR-5) | GI50 (OVCAR-8) | GI50 (UO-31) | GI50 (OVCAR-3) | GI50 (HOP-62) | GI50 (Malme-3M) | GI50 (SNB-75)
1 | CC(C)(C)O/N=C/c1cc(NC(=S)c2ccccc2)ccc1Cl | 11.5 µM (inactive) | 15.6 µM (inactive) | 15.6 µM (inactive) | 29.4 µM (inactive) | 22.4 µM (inactive) | 18.7 µM (inactive) | 27.2 µM (inactive) | 29.3 µM (inactive) | 12.3 µM (inactive) | 15.1 µM (inactive) | 12.1 µM (inactive) | 16.3 µM (inactive) | 21.1 µM (inactive) | 23.8 µM (inactive) | 17.9 µM (inactive) | 12.8 µM (inactive) | 16.3 µM (inactive) | 13.7 µM (inactive) | 19 µM (inactive) | –
2 | Oc1ccc(-c2ccccc2)nn1 | – | > 100 µM (inactive) | > 100 µM (inactive) | – | > 100 µM (inactive) | > 100 µM (inactive) | > 100 µM (inactive) | > 100 µM (inactive) | > 100 µM (inactive) | > 100 µM (inactive) | > 100 µM (inactive) | > 100 µM (inactive) | > 100 µM (inactive) | > 100 µM (inactive) | > 100 µM (inactive) | > 100 µM (inactive) | > 100 µM (inactive) | > 100 µM (inactive) | > 100 µM (inactive) | –
3 | C=CCC1(Sc2ccccn2)Sc2ccc3ccccc3c2-c2c(ccc3ccccc23)S1 | – | > 100 µM (inactive) | > 100 µM (inactive) | > 100 µM (inactive) | > 100 µM (inactive) | > 100 µM (inactive) | > 100 µM (inactive) | > 100 µM (inactive) | > 100 µM (inactive) | > 100 µM (inactive) | > 100 µM (inactive) | > 100 µM (inactive) | > 100 µM (inactive) | > 100 µM (inactive) | > 100 µM (inactive) | > 100 µM (inactive) | > 100 µM (inactive) | > 100 µM (inactive) | > 100 µM (inactive) | 55.7 µM (inactive)
4 | N#CC1C(=O)N(c2ccccc2)NC12OC(=O)c1ccncc12 (configuration not stated) | > 20 µM (inactive) | > 20 µM (inactive) | > 20 µM (inactive) | > 20 µM (inactive) | > 20 µM (inactive) | > 20 µM (inactive) | > 20 µM (inactive) | > 20 µM (inactive) | > 20 µM (inactive) | > 20 µM (inactive) | > 20 µM (inactive) | > 20 µM (inactive) | – | > 20 µM (inactive) | > 20 µM (inactive) | > 20 µM (inactive) | > 20 µM (inactive) | – | > 20 µM (inactive) | –
5 | Cc1csc2nc3c(cnn3C)c(=S)n12 | > 100 µM (inactive) | > 100 µM (inactive) | > 100 µM (inactive) | 61.8 µM (inactive) | > 100 µM (inactive) | > 100 µM (inactive) | > 100 µM (inactive) | 34.3 µM (inactive) | 35.1 µM (inactive) | > 100 µM (inactive) | > 100 µM (inactive) | – | > 100 µM (inactive) | > 100 µM (inactive) | > 100 µM (inactive) | 33.5 µM (inactive) | > 100 µM (inactive) | 50 µM (inactive) | > 100 µM (inactive) | 28.1 µM (inactive)
6 | CC(C)[Si](OCC/C=C/C1CCC(=O)C1C(O)C1CCCCC1)(C(C)C)C(C)C (configuration not stated) | 13.7 µM (inactive) | 13.9 µM (inactive) | 15.6 µM (inactive) | 15.7 µM (inactive) | 17.7 µM (inactive) | 16 µM (inactive) | 17.9 µM (inactive) | 14.7 µM (inactive) | 8.89 µM (inactive) | 4.29 µM (inactive) | 15.1 µM (inactive) | – | 7.13 µM (inactive) | 18.2 µM (inactive) | 15.2 µM (inactive) | 16.6 µM (inactive) | 16.5 µM (inactive) | 16.9 µM (inactive) | 14.8 µM (inactive) | 15.2 µM (inactive)
7 | O=c1c2ccccc2c2c1c1c3ccccc3c(=O)c1c1c3ccccc3c(=O)c21 | > 100 µM (inactive) | > 100 µM (inactive) | > 100 µM (inactive) | > 100 µM (inactive) | > 100 µM (inactive) | > 100 µM (inactive) | > 100 µM (inactive) | > 100 µM (inactive) | – | > 100 µM (inactive) | > 100 µM (inactive) | > 100 µM (inactive) | > 100 µM (inactive) | > 100 µM (inactive) | > 100 µM (inactive) | > 100 µM (inactive) | > 100 µM (inactive) | > 100 µM (inactive) | > 100 µM (inactive) | > 100 µM (inactive)
8 | COc1ccc(/N=N/c2c(C)c(C#N)c(=S)n(C3OC(COC(C)=O)C(OC(C)=O)C(OC(C)=O)C3OC(C)=O)c2-c2ccccc2)cc1 (configuration not stated) | 5.65 µM (inactive) | 3.39 µM (inactive) | 15.6 µM (inactive) | – | 11 µM (inactive) | 2.92 µM (inactive) | 10.3 µM (inactive) | 9.48 µM (inactive) | 11.5 µM (inactive) | 4.07 µM (inactive) | – | 3.13 µM (inactive) | 9.59 µM (inactive) | 13.2 µM (inactive) | – | 39.8 µM (inactive) | 13.9 µM (inactive) | 11.6 µM (inactive) | 7.23 µM (inactive) | –
9 | CCCCC/C(C=O)=C\c1ccccc1 | > 100 µM (inactive) | > 100 µM (inactive) | > 100 µM (inactive) | > 100 µM (inactive) | > 100 µM (inactive) | > 100 µM (inactive) | > 100 µM (inactive) | > 100 µM (inactive) | > 100 µM (inactive) | > 100 µM (inactive) | > 100 µM (inactive) | > 100 µM (inactive) | > 100 µM (inactive) | – | > 100 µM (inactive) | > 100 µM (inactive) | – | > 100 µM (inactive) | – | > 100 µM (inactive)
10 | O=S(=O)(CCC[C@H]1[C@@H](CCOCc2ccccc2)C2CCCN1O2)c1ccccc1 (some centres not stated) | – | > 100 µM (inactive) | > 100 µM (inactive) | > 100 µM (inactive) | > 100 µM (inactive) | > 100 µM (inactive) | > 100 µM (inactive) | > 100 µM (inactive) | > 100 µM (inactive) | > 100 µM (inactive) | > 100 µM (inactive) | – | > 100 µM (inactive) | > 100 µM (inactive) | > 100 µM (inactive) | > 100 µM (inactive) | > 100 µM (inactive) | > 100 µM (inactive) | > 100 µM (inactive) | > 100 µM (inactive)
11 | COc1ccc(Nc2nc(N)c(C(=O)c3ccco3)s2)cc1 | 16.6 µM (inactive) | 26.1 µM (inactive) | > 61.4 µM (inactive) | 35 µM (inactive) | > 56.5 µM (inactive) | 13.2 µM (inactive) | 3.15 µM (inactive) | 50 µM (inactive) | 31.8 µM (inactive) | 0.955 µM (active) | 10.7 µM (inactive) | 5.04 µM (inactive) | 39.3 µM (inactive) | > 83.2 µM (inactive) | > 100 µM (inactive) | 29.3 µM (inactive) | 20.6 µM (inactive) | > 63.8 µM (inactive) | > 90.2 µM (inactive) | –
12 | CC(C)(C)C1CCC2c3c([nH]c4ccccc34)C3C(=O)N(c4ccccc4[N+](=O)[O-])C(=O)C3C2C1 (configuration not stated) | 17.5 µM (inactive) | 12.7 µM (inactive) | 8.34 µM (inactive) | 37.5 µM (inactive) | 19.3 µM (inactive) | 11.5 µM (inactive) | 19.1 µM (inactive) | 5.66 µM (inactive) | 6.65 µM (inactive) | 9.64 µM (inactive) | 16.7 µM (inactive) | 11.7 µM (inactive) | > 10 µM (inactive) | 16.9 µM (inactive) | 16.6 µM (inactive) | 20.4 µM (inactive) | 13 µM (inactive) | 4.53 µM (inactive) | 16.4 µM (inactive) | –
13 | O=C([O-])C(O)C(O)C(O)C(O)C(=O)O.[K+] (configuration not stated) | – | > 100 µM (inactive) | > 100 µM (inactive) | > 100 µM (inactive) | > 100 µM (inactive) | > 100 µM (inactive) | > 100 µM (inactive) | > 100 µM (inactive) | > 100 µM (inactive) | > 100 µM (inactive) | > 100 µM (inactive) | 76.2 µM (inactive) | > 100 µM (inactive) | > 100 µM (inactive) | > 100 µM (inactive) | > 100 µM (inactive) | > 100 µM (inactive) | > 100 µM (inactive) | > 100 µM (inactive) | > 100 µM (inactive)
14 | CN(C)CC[N+](C)(C)[BH2-]C(O)O | – | > 100 µM (inactive) | > 100 µM (inactive) | – | > 100 µM (inactive) | > 100 µM (inactive) | > 100 µM (inactive) | > 100 µM (inactive) | > 100 µM (inactive) | > 100 µM (inactive) | > 100 µM (inactive) | > 100 µM (inactive) | > 100 µM (inactive) | > 100 µM (inactive) | – | > 100 µM (inactive) | > 100 µM (inactive) | > 100 µM (inactive) | – | > 100 µM (inactive)
15 | COc1cc(/C=C2/C(=O)N(C(=O)c3ccccc3O)N=C2C)ccc1O | 1.06 µM (active) | 0.596 µM (active) | 0.277 µM (active) | 0.223 µM (active) | 0.123 µM (active) | 1.36 µM (inactive) | 0.409 µM (active) | 0.217 µM (active) | 0.0628 µM (active) | 0.206 µM (active) | 0.123 µM (active) | 0.536 µM (active) | 0.23 µM (active) | 6.46 µM (inactive) | 0.352 µM (active) | 0.17 µM (active) | 0.4 µM (active) | 1.77 µM (inactive) | 0.43 µM (active) | –
